Data set [1] is described as follows: Stability on standing at room temperature. The format is physicochemical. Particulars: allowed to stand at room temperature.
The test system of data set [2] is morning glory (variety: Murasaki). In words: Bud formation promotion activity on morning glory. The settings on record: sprayed at 100 μM; treatment in dark 14 h or 15 h; buds measured on day 14 under continuous light at 25° C.; N=8 plants; compared with water (FIG. 1). The format is in vivo. The procedure: 9 g of morning glory (variety: Murasaki) seeds were treated with concentrated sulfuric acid for 20 minutes followed by allowing to stand overnight in running water. Next, the seeds were allowed to take root by allowing to stand for 24 hours on wet sea sand with the omphalos portion of the seed facing upward. The seeds that had taken root were planted to a depth of about 1.5 cm to 2.0 cm in sea sand and cultured under continuous light (for about 5 days).
All of the morning glory plants that foliated as a result of this culturing were transferred to a culture broth (containing KNO3 (250 mg), NH4NO3 (250 mg), KH2PO4 (250 mg), MgSO4.7H2O (250 mg), MnSO4.4H2O (1 mg), Fe-citrate-n-hydrate (6 mg), H3BO3 (2 mg), CuSO4.5H2O (0.1 mg), ZeSO4.7H2O (0.2 mg), Na2MoO4.2H2O (0.2 mg) and Ca(H2PO4)2.2H2O (250 mg) in 1000 mL of distilled water).
0.10 μM and 100 μM aqueous solutions of the present ketol fatty acid derivative obtained in the aforementioned Example 1 were sprayed onto this culture system and subjected to treatment in dark for 14 hours or 15 hours. Following this treatment in dark, water or the present ketol fatty acid derivative was sprayed again followed by growing the plants under continuous light for 14 days at 25° C. and measuring the buds that formed on day 14. […]

Turning to `CC/C=C\C/C=C\CC(=O)C(O)CCCCCCCC(=O)O` (stereo not drawn) [α-ketol unsaturated fatty acid], the “stability (loss of activity)” value in data set [1] was “losing activity in a few days”. As for `CC/C=C\CC1CC1CC(=O)C(O)CCCCCCCC(=O)O` (centres unmarked), in data set [2], the “increase in number of buds that formed” value is reported as “more than 200%”.

Source of the values: patent publication US8519173B2, “Plant growth regulator” (Shiseido Company, Ltd., priority 2009, dated 2013).
